These results are taken from US20110212169A1, “METHOD FOR PRODUCING POWDER CONTAINING NANOPARTICULATED SPARINGLY SOLUBLE DRUG, POWDER PRODUCED THEREBY AND PHARMACEUTICAL COMPOSITION CONTAINING SAME (As Amended)” (Amorepacific Corporation, priority 2008, published 2011).

Molecules are shown by their SMILES.

This series is described as follows: Particle size of drug after redispersion in distilled water (laser scattering particle size analyzer). Format: physicochemical. Here is the method:
Each powder (0.01 g) was redispersed in distilled water (5 mL) and particle size was measured. Electron microscopic images of the powders when the concentration of the carageenan solution was 0.1 wt % and 2 wt % are shown in FIGS. 2a and 2b, respectively. The redispersion was conducted by lightly shaking the mixture with a hand. The particle size was measured under aqueous condition using a laser scattering particle size analyzer (LA 910, Horiba, Japan) (Mie & Fraunhofer, relative refraction index=1). The resolving power of the ultrasonic disperser used for the particle size measurement was 40 W (39 kHz), and the speed of stirring and circulation was 340 mL/min. The particle size measurement was made after performing ultrasonic dispersion for 1 minute.

Consider `C=CC[C@@H]1/C=C(\C)C[C@H](C)C[C@H](OC)[C@H]2O[C@@](O)(C(=O)C(=O)N3CCCC[C@H]3C(=O)O[C@H](/C(C)=C/[C@@H]3CC[C@@H](O)[C@H](OC)C3)[C@H](C)[C@@H](O)CC1=O)[C@H](C)C[C@@H]2OC` [Tacrolimus, tacrolimus], for which the Average particle size (carageenan 5 wt %, freeze dried powder redispersed in distilled water, different drugs) is 0.16 (±0.09) μm.

As to `COc1ccc2cc([C@H](C)C(=O)O)ccc2c1` [naproxen], the Average particle size reads like this: (1 wt % carageenan, hot air drying at 40 °C, redispersed in distilled water) 0.39 (±1.01) μm; (1 wt % carageenan, hot air drying at 60 °C, redispersed in distilled water) 0.36 (±0.29) μm; (carageenan 0.1 wt %, freeze dried powder redispersed in distilled water) 0.91 (±2.00) μm; (carageenan 0.5 wt %, freeze dried powder redispersed in distilled water) 0.31 (±0.10) μm; (carageenan 0.5 wt %, vacuum drying at room temperature, redispersed in distilled water) 0.36 (±0.71) μm; (carageenan 1 wt %, freeze dried powder redispersed in distilled water) 0.28 (±0.08) μm. Further, the Average particle size by setting is: (carageenan 1 wt %, vacuum drying at room temperature, redispersed in distilled water) 0.26 (±0.06) μm; (carageenan 2 wt %, freeze dried powder redispersed in distilled water) 0.23 (±0.06) μm; (carageenan 2 wt %, vacuum drying at room temperature, redispersed in distilled water) 0.21 (±0.06) μm; (carageenan 3 wt %, freeze dried powder redispersed in distilled water) 0.26 (±0.07) μm; (carageenan 3 wt %, vacuum drying at room temperature, redispersed in distilled water) 0.23 (±0.06) μm; (carageenan 5 wt %, freeze dried powder redispersed in distilled water) 0.12 (±0.05) μm. The Average particle size (naproxen concentration 16 wt %, carageenan 0.5 wt %, freeze dried, redispersed in distilled water) is listed as 0.56 (±1.20) μm and the Average particle size (naproxen concentration 16 wt %, carageenan 1 wt %, freeze dried, redispersed in distilled water) is recorded as 0.22 (±0.07) μm. Also, the drug particle size (alginic acid 1 wt %, vacuum drying at room temperature, redispersed in distilled water) is 0.31 (±0.41); the drug particle size (alginic acid 2 wt %, vacuum drying at room temperature, redispersed in distilled water) is 0.19 (±0.05); the drug particle size (gelatin 1 wt %, freeze drying, redispersed in distilled water) is 0.45 (±0.89); the drug particle size (gelatin 2 wt %, freeze drying, redispersed in distilled water) was 0.16 (±0.08); the drug particle size (gelatin 3 wt %, freeze drying, redispersed in distilled water) is 0.13 (±0.06); the drug particle size (gelatin 3 wt %, vacuum drying at room temperature, redispersed in distilled water) is recorded as 0.36 (±0.10). For the same molecule, where the note is “gelatin 5 wt %, freeze drying, redispersed in distilled water”, the drug particle size is 0.16 (±0.05). Moreover, the “average particle size of the naproxen particles” value (slurry mixture after wet grinding (before drying) redispersed in distilled water) came to 0.10 μm.
